In the supplement of paper PMC10307832:

Tests used:
Assay in all cases: relative viability (nuclei count vs DMSO), 5 days (fraction); higher = more cells survive
RO-3306 + Vorinostat = compound: C1=CC2=C(C=CC(=C2)C=C3C(=O)NC(=NCC4=CC=CS4)S3)N=C1 [RO-3306] + O=C(CCCCCCC(=O)Nc1ccccc1)NO [Vorinostat] (partner 1 µM)
Summary of the method: (§1)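 The day after seeding in 1536-well plates, lung cancer cell lines were treated by pin tool with a single drug, or with a fixed anchor-drug dose together with five library-drug doses (not always all listed) in √10 steps. After 5 days, a combined fix-and-stain solution (final 0.05% Triton X-100, 1% formaldehyde, 1 ug/ml Hoechst) was added. Nuclei counted on 4× images gave relative viability as treated counts over vehicle counts, reported as the median of duplicate plates.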

RO-3306 + OSI-027 = compound: C1=CC2=C(C=CC(=C2)C=C3C(=O)NC(=NCC4=CC=CS4)S3)N=C1 [RO-3306] + COc1cccc2cc(-c3nc([C@H]4CC[C@H](C(=O)O)CC4)n4ncnc(N)c34)[nH]c12 [OSI-027] (partner 0.5 µM)
Summary of the method: as §1

[1] = compound: O=S(=O)(c1ccccc1)N(CC(F)(F)F)c1ccc(C(O)(C(F)(F)F)C(F)(F)F)cc1 + CS(=O)(=O)N1CCN(Cc2cc3nc(-c4cccc5[nH]ncc45)nc(N4CCOCC4)c3s2)CC1 [Pictilisib] (partner 1 µM)
Summary of the method: as §1

[2] = compound: O=S(=O)(c1ccccc1)N(CC(F)(F)F)c1ccc(C(O)(C(F)(F)F)C(F)(F)F)cc1 + O=C(c1cc(Cc2n[nH]c(=O)c3ccccc23)ccc1F)N1CCN(C(=O)C2CC2)CC1 [Olaparib] (partner 8 µM)
Summary of the method: as §1

[3] = compound: O=S(=O)(c1ccccc1)N(CC(F)(F)F)c1ccc(C(O)(C(F)(F)F)C(F)(F)F)cc1 + COc1cc2c(Oc3ccc(NC(=O)C4(C(=O)Nc5ccc(F)cc5)CC4)cc3F)ccnc2cc1OCCCN1CCOCC1 [Foretinib] (partner 0.25 µM)
Summary of the method: as §1

| Cell Line | relative viability (RO-3306 + Vorinostat; first compound 0.01 µM) | relative viability (RO-3306 + Vorinostat; first compound 0.03162 µM) | relative viability (RO-3306 + Vorinostat; first compound 0.1 µM) | relative viability (RO-3306 + Vorinostat; first compound 0.3162 µM) | relative viability (RO-3306 + Vorinostat; first compound 1 µM) | relative viability (RO-3306 + OSI-027; first compound 0.01 µM) | relative viability (RO-3306 + OSI-027; first compound 0.03162 µM) | relative viability (RO-3306 + OSI-027; first compound 0.1 µM) | relative viability (RO-3306 + OSI-027; first compound 0.3162 µM) | relative viability (RO-3306 + OSI-027; first compound 1 µM) | relative viability ([1]; first compound 0.8 µM) | relative viability ([1]; first compound 2.53 µM) | relative viability ([1]; first compound 8 µM) | relative viability ([2]; first compound 0.8 µM) | relative viability ([2]; first compound 2.53 µM) | relative viability ([2]; first compound 8 µM) | relative viability ([3]; first compound 0.8 µM) | relative viability ([3]; first compound 2.53 µM) | relative viability ([3]; first compound 8 µM) |
| --- | --- | --- | --- | --- | --- | --- | --- | --- | --- | --- | --- | --- | --- | --- | --- | --- | --- | --- | --- |
| NCI-H1651 | 0.559 | 0.535 | 0.529 | 0.544 | 0.511 | 0.796 | 0.564 | 0.633 | 0.794 | 0.609 | 0.681 | 0.598 | 0.598 | 0.178 | 0.206 | 0.176 | 0.974 | 0.795 | 0.68 |
| NCI-H1666 | 0.803 | 0.952 | 1.04 | 1.05 | 0.972 | 0.747 | 0.73 | 0.749 | 0.817 | 0.853 | 0.434 | 0.418 | 0.398 | 0.757 | 0.683 | 0.679 | 0.936 | 0.863 | 0.863 |
| NCI-H1734 | 0.802 | 0.631 | 0.733 | 0.828 | 0.734 | 0.653 | 0.582 | 0.529 | 0.615 | 0.514 | 0.549 | 0.48 | 0.429 | 0.703 | 0.559 | 0.469 | 1.07 | 0.868 | 0.822 |
| NCI-H1755 | 0.881 | 0.856 | 0.771 | 0.745 | 0.706 | 0.777 | 0.736 | 0.652 | 0.702 | 0.635 | 0.376 | 0.361 | 0.382 | 0.918 | 0.865 | 0.849 | 0.891 | 0.79 | 0.951 |
| NCI-H1793 | 0.985 | – | 0.58 | 0.701 | 0.721 | 0.266 | 0.277 | 0.291 | 0.251 | 0.262 | 0.366 | 0.344 | 0.277 | 0.791 | 0.574 | 0.692 | 0.484 | 0.321 | 0.566 |
| NCI-H1915 | 0.577 | 0.564 | 0.505 | 0.49 | 0.505 | 0.698 | 0.594 | 0.613 | 0.637 | 0.396 | 0.965 | 1.1 | 1.13 | 0.266 | 0.263 | 0.269 | 1.1 | 1.03 | 1.1 |
| NCI-H1944 | 0.595 | 0.566 | 0.588 | 0.562 | 0.509 | 0.399 | 0.366 | 0.361 | 0.394 | 0.335 | 0.3 | 0.341 | 0.357 | 0.407 | 0.39 | 0.396 | 0.938 | 0.826 | 0.832 |
| NCI-H1975 | 0.608 | 0.624 | 0.685 | 0.701 | 0.69 | 0.959 | 0.614 | 0.655 | 0.788 | 0.613 | 0.28 | 0.264 | 0.249 | 1.02 | 0.762 | 0.875 | 1.11 | 1.01 | 1.13 |
| NCI-H1993 | 0.82 | 0.707 | 0.751 | 0.822 | 0.716 | 0.6 | 0.581 | 0.507 | 0.614 | 0.543 | 0.772 | 0.782 | 1.07 | 1.1 | 0.843 | 0.954 | 0.681 | 0.726 | 0.679 |
| NCI-H2009 | 0.797 | 0.739 | 0.677 | 0.81 | 0.712 | 0.656 | 0.56 | 0.624 | 0.622 | 0.615 | 0.814 | 0.751 | 0.783 | 0.663 | 0.685 | 0.648 | 1.26 | 1.08 | 0.988 |
| NCI-H2023 | 0.684 | 0.524 | 0.651 | 0.806 | 0.5 | 0.429 | 0.373 | 0.36 | 0.419 | 0.283 | 0.183 | 0.221 | 0.193 | 0.601 | 0.48 | 0.441 | 0.957 | 0.73 | 0.66 |
| NCI-H2085 | 0.83 | 0.733 | 0.775 | 0.781 | 0.8 | 0.598 | 0.728 | 0.642 | 0.664 | 0.635 | 0.428 | 0.543 | 0.455 | 0.745 | 0.686 | 0.742 | 0.886 | 0.725 | 0.885 |
| NCI-H2087 | 0.775 | 0.805 | 0.756 | 0.864 | 0.86 | 0.534 | 0.462 | 0.529 | 0.539 | 0.538 | 0.868 | 0.993 | 0.848 | 0.643 | 0.609 | 0.637 | 1.15 | 0.909 | 0.971 |
| NCI-H2126 | 0.747 | 0.679 | 0.812 | 0.879 | 0.733 | 0.627 | 0.597 | 0.707 | 0.708 | 0.727 | 0.489 | 0.513 | 0.5 | 0.999 | 0.878 | 0.803 | 1.35 | 1.19 | 1.1 |
| NCI-H2170 | 0.901 | 0.568 | 0.886 | 0.842 | 0.856 | 0.819 | 0.702 | 0.726 | 0.655 | 0.697 | 0.305 | 0.291 | 0.307 | 0.666 | 0.563 | 0.609 | 1.02 | 0.88 | 0.837 |
| NCI-H2228 | 0.648 | 0.737 | 0.615 | 0.612 | 0.368 | 0.652 | 0.411 | 0.557 | 0.685 | 0.429 | 0.414 | 0.366 | 0.26 | 0.678 | 0.578 | 0.589 | 0.65 | 0.657 | 0.839 |
